Values joined by “and” are separate entries in the source; they are usually repeats but may differ in a detail not shown here. Equal entries are not always repeated. Toxic doses and inconclusive results are not listed. Cut-off read from the data, not from the text of the source: active = T/C of 150% or more; inactive = T/C below 125%.
Test system: L1210 leukemia ip in BDF1 mice, survival T/C
Experiment: NCI In Vivo Anticancer Drug Screen. Data for tumor model L1210 Leukemia (intraperitoneal) in B6D2F1 (BDF1) mice
Settings: endpoint: mean survival time, higher = longer survival
How it was run: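 Each compound was tested against a transplantable tumor grown in mice. The endpoint was survival, with treated animals benchmarked against vehicle controls as a simple ratio.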

[1] = dose: 100.0 mg/kg/injection, schedule: Q04DX003 (ip), vehicle: Klucel (hydroxypropylcellulose) (HPC)
[2] = dose: 200.0 mg/kg/injection, schedule: Q04DX003 (ip), vehicle: Klucel (hydroxypropylcellulose) (HPC)
[3] = dose: 400.0 mg/kg/injection, schedule: Q04DX003 (ip), vehicle: Klucel (hydroxypropylcellulose) (HPC)
[4] = dose: 100.0 mg/kg/injection, schedule: Q01DX001 (ip), vehicle: carboxymethylcellulose (CMC)
[5] = dose: 200.0 mg/kg/injection, schedule: Q01DX001 (ip), vehicle: carboxymethylcellulose (CMC)
[6] = dose: 400.0 mg/kg/injection, schedule: Q01DX001 (ip), vehicle: carboxymethylcellulose (CMC)
[7] = dose: 100.0 mg/kg/injection, schedule: Q01DX009 (ip), vehicle: saline
[8] = dose: 100.0 mg/kg/injection, schedule: Q04DX003 (ip), vehicle: saline
[9] = dose: 100.0 mg/kg/injection, schedule: Q01DX009 (ip), vehicle: Klucel (hydroxypropylcellulose) (HPC)
[10] = dose: 75.0 mg/kg/injection, schedule: Q01DX001 (ip), vehicle: other
[11] = dose: 100.0 mg/kg/injection, schedule: Q01DX001 (ip), vehicle: saline with Tween-80
[12] = dose: 200.0 mg/kg/injection, schedule: Q01DX001 (ip), vehicle: saline with Tween-80
[13] = dose: 400.0 mg/kg/injection, schedule: Q01DX001 (ip), vehicle: saline with Tween-80
[14] = dose: 100.0 mg/kg/injection, schedule: Q01DX001 (ip), vehicle: saline
[15] = dose: 200.0 mg/kg/injection, schedule: Q01DX001 (ip), vehicle: saline
[16] = dose: 400.0 mg/kg/injection, schedule: Q01DX001 (ip), vehicle: saline
[17] = dose: 100.0 mg/kg/injection, schedule: Q04DX002 (ip), vehicle: saline with Tween-80
[18] = dose: 400.0 mg/kg/injection, schedule: Q04DX002 (ip), vehicle: saline with Tween-80
[19] = dose: 100.0 mg/kg/injection, schedule: Q04DX002 (ip), vehicle: Klucel (hydroxypropylcellulose) (HPC)
[20] = dose: 100.0 mg/kg/injection, schedule: Q04DX003 (ip), vehicle: saline with Tween-80
[21] = dose: 200.0 mg/kg/injection, schedule: Q04DX003 (ip), vehicle: saline with Tween-80
[22] = dose: 400.0 mg/kg/injection, schedule: Q04DX003 (ip), vehicle: saline with Tween-80

Measured: T/C

O=c1[nH][nH]c(Cc2ccccc2)c1-c1ccccc1
inactive: [1] 102 % of control | [2] 98 % of control | [3] 101 % of control

CCc1ccc(N=Nc2ccc(N)cc2)cc1
inactive: [4] 101 % of control | [5] 89 % of control | [6] 93 % of control

CCCCCCCCCCCCCCCCCCNC(=S)NN=C(NNC(=S)NCCCCCCCCCCCCCCCCCC)NNC(=S)NCCCCCCCCCCCCCCCCCC
inactive: dose: 15.0 mg/kg/injection, schedule: Q01DX Z (ip), vehicle: carboxymethylcellulose (CMC) 101 % of control | dose: 30.0 mg/kg/injection, schedule: Q01DX Z (ip), vehicle: carboxymethylcellulose (CMC) 111 % of control | dose: 60.0 mg/kg/injection, schedule: Q01DX Z (ip), vehicle: carboxymethylcellulose (CMC) 109 % of control and 114 % of control | dose: 120.0 mg/kg/injection, schedule: Q01DX Z (ip), vehicle: carboxymethylcellulose (CMC) 114 % of control | dose: 240.0 mg/kg/injection, schedule: Q01DX Z (ip), vehicle: carboxymethylcellulose (CMC) 111 % of control | dose: 480.0 mg/kg/injection, schedule: Q01DX Z (ip), vehicle: carboxymethylcellulose (CMC) 111 % of control

O=C(O)C1CCC(C(=O)c2ccc([N+](=O)[O-])cc2)CC1 (stereo not given)
inactive: dose: 100.0 mg/kg/injection, schedule: Q04DX003 (ip), vehicle: gum acacia 97 % of control | dose: 200.0 mg/kg/injection, schedule: Q04DX003 (ip), vehicle: gum acacia 93 % of control | dose: 400.0 mg/kg/injection, schedule: Q04DX003 (ip), vehicle: gum acacia 88 % of control

O=C1c2ccccc2-c2cc(Cl)c([N+](=O)[O-])cc21
inactive: dose: 50.0 mg/kg/injection, schedule: Q01DX001 (ip), vehicle: carboxymethylcellulose (CMC) 98 % of control | [4] 96 % of control | [5] 98 % of control | [6] 91 % of control

CCN1CC=CCC1
inactive: dose: 25.0 mg/kg/injection, schedule: Q04DX003 (ip), vehicle: saline 93 % of control | dose: 50.0 mg/kg/injection, schedule: Q01DX009 (ip), vehicle: saline 100 % of control | dose: 50.0 mg/kg/injection, schedule: Q04DX003 (ip), vehicle: saline 98 % of control | [7] 100 % of control | [8] 103 % of control and 91 % of control

OCCCNc1nc2cc(Cl)ccc2c2ccc(Cl)cc12
inactive: [9] 90 % of control | [1] 88 % of control | [2] 97 % of control | [3] 103 % of control

CCOC(=O)c1ccc(NCc2nc3nc(N)nc(N)c3[nH]2)cc1
inactive: [10] 102 % of control | dose: 150.0 mg/kg/injection, schedule: Q01DX001 (ip), vehicle: other 97 % of control | dose: 300.0 mg/kg/injection, schedule: Q01DX001 (ip), vehicle: other 97 % of control

O=C1OC2C3c4ccccc4C(c4c3ccc3ccccc43)C2O1 (stereo not given)
inactive: [1] 103 % of control | [2] 95 % of control | [3] 95 % of control

COC(=O)C(Cc1[nH]cnc1N=Nc1ccc(Br)cc1)NC(C)=O (stereo not given)
inactive: [11] 107 % of control | [12] 96 % of control | [13] 96 % of control

Nc1nc2nc(-c3ccc([N+](=O)[O-])cc3)nc(N)c2nc1-c1ccc(N(CCCl)CCCl)cc1
inactive: [14] 96 % of control | [15] 95 % of control | [16] 101 % of control

Cc1cc(C2=NCC(C)S2)c(C(C)C)cc1O (stereo not given)
inactive: [17] 93 % of control | dose: 200.0 mg/kg/injection, schedule: Q04DX002 (ip), vehicle: saline with Tween-80 104 % of control | [18] 104 % of control

CCCCCCCCCC(CCCCCCCCC)NCC(C)OC(=O)c1ccc([N+](=O)[O-])cc1 (stereo not given)
inactive: dose: 75.0 mg/kg/injection, schedule: Q01DX001 (ip), vehicle: acetone 95 % of control | dose: 150.0 mg/kg/injection, schedule: Q01DX001 (ip), vehicle: acetone 95 % of control | dose: 300.0 mg/kg/injection, schedule: Q01DX001 (ip), vehicle: acetone 94 % of control

CCCCCP(=S)(CCCC)CCCCC
inactive: [19] 98 % of control | dose: 200.0 mg/kg/injection, schedule: Q04DX002 (ip), vehicle: Klucel (hydroxypropylcellulose) (HPC) 94 % of control | dose: 400.0 mg/kg/injection, schedule: Q04DX002 (ip), vehicle: Klucel (hydroxypropylcellulose) (HPC) 94 % of control

O=C(O)c1c(O)cc(=O)oc1-c1ccc(Cl)cc1
inactive: [4] 87 % of control | [5] 92 % of control | [6] 100 % of control

O=P(NCCCl)(Nc1ccccc1)Nc1ccccc1
inactive: dose: 50.0 mg/kg/injection, schedule: Q01DX009 (ip), vehicle: Klucel (hydroxypropylcellulose) (HPC) 112 % of control | [9] 108 % of control | [1] 90 % of control | dose: 200.0 mg/kg/injection, schedule: Q01DX009 (ip), vehicle: Klucel (hydroxypropylcellulose) (HPC) 108 % of control

COc1cc(N(CCC#N)CCC#N)nc(OC)n1
inactive: dose: 50.0 mg/kg/injection, schedule: Q01DX009 (ip), vehicle: saline with Tween-80 96 % of control | dose: 100.0 mg/kg/injection, schedule: Q01DX009 (ip), vehicle: saline with Tween-80 92 % of control | dose: 200.0 mg/kg/injection, schedule: Q01DX009 (ip), vehicle: saline with Tween-80 92 % of control

NC1CCC(OC(=O)C23CC4CC(CC(C4)C2)C3)CC1 (stereo not given)
inactive: [11] 94 % of control

CC(=O)C(CCC#N)(CCC#N)c1ccccc1
inactive: dose: 50.0 mg/kg/injection, schedule: Q04DX002 (ip), vehicle: Klucel (hydroxypropylcellulose) (HPC) 121 % of control | [19] 101 % of control

Cc1ccc(CCn2cnc3c(=S)nc[nH]c32)cc1
inactive: dose: 50.0 mg/kg/injection, schedule: Q01DX001 (ip), vehicle: saline 98 % of control | [14] 93 % of control | [15] 104 % of control | [16] 93 % of control

O=C(Nc1ccccc1)OCC(OC(=O)Nc1ccccc1)C(COC(=O)Nc1ccccc1)OC(=O)Nc1ccccc1 (stereo not given)
inactive: dose: 25.0 mg/kg/injection, schedule: Q04DX002 (ip), vehicle: saline with Tween-80 100 % of control | dose: 50.0 mg/kg/injection, schedule: Q04DX002 (ip), vehicle: saline with Tween-80 100 % of control | [17] 92 % of control | [18] 88 % of control

Cc1cc(C)cc(C(O)(c2cc(C)cc(C)c2)c2cc(C)cc(C)c2)c1
inactive: [20] 102 % of control | [21] 116 % of control | [22] 94 % of control

COc1ccc(/C=C2/CN(c3ccc(C(=O)O)cc3)C(=O)C2=O)cc1
inactive: [14] 95 % of control | [15] 98 % of control | [16] 98 % of control

COC(=O)c1cc2nccc3c4ccccc4n(c1=O)c23
inactive: dose: 100.0 mg/kg/injection, schedule: Q04DX003 (ip), vehicle: alcohol 103 % of control | dose: 200.0 mg/kg/injection, schedule: Q04DX003 (ip), vehicle: alcohol 97 % of control | dose: 400.0 mg/kg/injection, schedule: Q04DX003 (ip), vehicle: alcohol 98 % of control

CCCCCCCC(=O)N(CCC(=O)O)C(=O)O
inactive: [11] 88 % of control | [12] 96 % of control | [13] 107 % of control

OC1C(O)C(O)C(O)C(O)C1O (stereo not given)
inactive: [7] 97 % of control | [20] 104 % of control | [8] 98 % of control | dose: 200.0 mg/kg/injection, schedule: Q01DX009 (ip), vehicle: saline 92 % of control | [21] 98 % of control | dose: 200.0 mg/kg/injection, schedule: Q04DX003 (ip), vehicle: saline 98 % of control | dose: 375.0 mg/kg/injection, schedule: Q01DX001 (ip), vehicle: carboxymethylcellulose (CMC) 100 % of control | dose: 400.0 mg/kg/injection, schedule: Q01DX009 (ip), vehicle: saline 97 % of control | [22] 98 % of control | dose: 400.0 mg/kg/injection, schedule: Q04DX003 (ip), vehicle: saline 107 % of control | dose: 750.0 mg/kg/injection, schedule: Q01DX001 (ip), vehicle: carboxymethylcellulose (CMC) 98 % of control | dose: 1500.0 mg/kg/injection, schedule: Q01DX001 (ip), vehicle: carboxymethylcellulose (CMC) 98 % of control

O=C(NCCCl)NC1CS(=O)(=O)CS(=O)(=O)C1
inactive: [10] 104 % of control
